Test results: ChEMBL document CHEMBL5120920, “A Mitochondria-Targeted Phenylbutyric Acid Prodrug Confers Drastically Improved Anticancer Activities” (J Med Chem, 2022)
Calls of active or inactive are those of the source. The calls are words filed in the database; no cut-off is given here.

Experiments:
[1] = Toxicity in BALB/c mouse assessed as change in body weight at 70 mg/kg, iv measured once every two days for 7 days; format: organism-based; settings: in vivo, 168 h, time 7 day
A-375 [2] = experiment: Antitumor activity against human A-375 cells implanted in BALB/c mouse assessed as reduction in tumor weight at 70 mg/kg, ip measured once every two days for 14 days; format: functional, organism-based; settings: time 14.0 day
A-375 [3] = experiment: Antitumor activity against human A-375 cells implanted in BALB/c mouse assessed as tumor growth inhibition at 70 mg/kg, ip measured once every two days for 14 days; format: functional, organism-based; settings: time 14.0 day
A-375 [4] = experiment: Antitumor activity against human A-375 cells implanted in BALB/c mouse assessed as shrinkage of tumor tissue at 70 mg/kg, ip measured once every two days for 14 days; format: functional, organism-based; settings: time 14.0 day

With `CN(C)/N=N/c1[nH]cnc1C(N)=O` [DACARBAZINE] the Activity [1] was “Toxic”, the Activity (A-375 [2]) was “Active” and the Activity (A-375 [3]) was “Active”. For the same compound, the Activity (A-375 [4]) was “Active”.
